Data set [1] is described as follows: Cytotoxicity against mouse BV2 cells assessed as reduction of cell viability at IC50 after 24 hrs by MTT assay. Type of data set: cell-based. The following applies: bv-2, 24 h.
The test system of a further data set is BV-2. Description: Anti-neuroinflammatory activity against mouse BV2 cells assessed as inhibition of LPS-induced nitric oxide production after 24 hrs by Griess assay. Type of data set: functional, cell-based. The settings on record: BV-2, 24 h.

As to `COc1ccc(-c2coc3c(OC)c(O)ccc3c2=O)cc1`, the Activity result in data set [1] is recorded as “Non-toxic”. Also, in the data set on BV-2, the IC50 is > 100 µM.
Turning to `COc1c(-c2ccc3c(c2)OCO3)oc2c(ccc3occc32)c1=O` [PONGAPIN], in data set [1], the Activity result was “Non-toxic”. Also, in the data set with BV-2, the IC50 was > 100 µM.
On to `COc1cc(OC)c(Cl)c(-c2cc(=O)c3ccc4occc4c3o2)c1Cl`, for which the Activity result in data set [1] is “Non-toxic”. Moreover, the half-inhibitory concentration (IC50) with BV-2 was > 100 µM.
Turning to `O=c1cc(-c2ccc3c(c2)OCO3)oc2c1ccc1occc12` [PONGAGLABRONE], the Activity entry in data set [1] was “Non-toxic”. Also, the IC50 with BV-2 came to 45.7 µM.
Take `COc1ccc(-c2coc3c(O)c(O)ccc3c2=O)cc1O`: the Activity result in data set [1] is listed as “Non-toxic”. In addition, in the data set on BV-2, the half-maximal inhibitory concentration (IC50) is > 100 µM.
In the same order, the values of `COc1ccc(OC)c(-c2cc(=O)c3ccc4occc4c3o2)c1` are “Non-toxic” and 87.7 µM.
`CC1(C)C=Cc2cc(C(=O)/C=C/c3ccccc3)c(O)cc2O1` [ISOLONCHOCARPIN]: the Activity entry in data set [1] is given as “Non-toxic”. Moreover, the half-inhibitory concentration (IC50) in the data set on BV-2 was > 100 µM.
`O=c1c(-c2ccc3c(c2)OCO3)coc2cc(O)ccc12` [PSEUDOBAPTOGENIN]: the Activity result in data set [1] was “Non-toxic”. The half-maximal inhibitory concentration (IC50) in the data set on BV-2 is > 100 µM.
As for `COc1ccc(-c2coc3c(O)c(OC)ccc3c2=O)cc1` [RETUSIN 7-METHYL ETHER], the Activity result in data set [1] is “Non-toxic”. Also, in the data set with BV-2, the concentration for half-maximal inhibition (IC50) is 50.9 µM.
In the case of `COc1ccc(-c2coc3cc(OCC=C(C)C)ccc3c2=O)cc1`, the Activity entry in data set [1] is given as “Non-toxic”. Further, the IC50 with BV-2 is > 100 µM.
With `O=c1cc(-c2ccccc2)oc2c1ccc1occc12` [LANCEOLATIN B], the Activity entry in data set [1] is on record as “Non-toxic”. Also, the half-inhibitory concentration (IC50) in the data set with BV-2 is 20.6 µM.
In the same order, the values of `COc1c(-c2ccccc2)oc2c(ccc3occc32)c1=O` [KARANJIN] are “Non-toxic” and > 100 µM.
Take `COc1c(-c2ccc3c(c2)OCO3)oc2c3c(ccc2c1=O)OC(C)(C)C=C3` [PONGACHROMENE]: the Activity result in data set [1] is reported as “Non-toxic”. Further, in the data set with BV-2, the IC50 is > 100 µM.
Regarding `COc1ccc2c(=O)c(OC)c(-c3ccc4c(c3)OCO4)oc2c1` [DEMETHOXYKANUGIN], the Activity result in data set [1] was “Non-toxic”. Besides, the IC50 in the data set with BV-2 came out at 14.1 µM.
Turning to `CC1(C)C=Cc2c(ccc(C(=O)/C=C/c3ccccc3)c2O)O1` [LONCHOCARPIN], in data set [1], the Activity result is “Non-toxic”. Besides, in the data set on BV-2, the IC50 was found to be 3.54 µM.
Consider `CC1(C)C=Cc2c(ccc(C(=O)/C=C/c3ccc4c(c3)OCO4)c2O)O1`, for which the Activity result in data set [1] was “Non-toxic”. For the same compound, the 50% inhibitory concentration (IC50) in the data set on BV-2 worked out at 6.56 µM.
Regarding `COc1c2ccoc2cc2oc(-c3ccccc3)cc(=O)c12` [PINNATIN], in data set [1], the Activity result is on record as “Non-toxic”. Besides, in the data set on BV-2, the half-maximal inhibitory concentration (IC50) is > 100 µM.
In the same order, the values of `COc1cccc(-c2cc(=O)c3ccc4occc4c3o2)c1` are “Non-toxic” and > 100 µM.
In the same order, the values of `CC1(C)CC[C@]2(C(=O)O)CC[C@]3(C)[C@H](CC[C@@H]4[C@@]5(C)CC[C@H](O)C(C)(C)[C@@H]5CC[C@]43C)[C@H]2[C@H]1O` are “Non-toxic” and 22.7 µM.
In the same order, the values of `COc1ccc(-c2coc3cc(O)ccc3c2=O)cc1` [FORMONONETIN] are “Non-toxic” and > 100 µM.
Consider `C=C(C)[C@@H]1CC[C@]2(C(=O)O)CC[C@]3(C)[C@H](CC[C@@H]4[C@@]5(C)CCC(=O)C(C)(C)[C@@H]5CC[C@]43C)[C@@H]12` [BETUNOLIC ACID], for which the Activity entry in data set [1] is listed as “Non-toxic”. Also, the half-inhibitory concentration (IC50) with BV-2 is > 100 µM.
In the case of `CN1CC[C@@H](O)C[C@H]1C(=O)O`, the Activity entry in data set [1] is on record as “Non-toxic”. In addition, the IC50 in the data set with BV-2 was > 100 µM.
The matching figures for `COc1cc(OC)cc(-c2cc(=O)c3ccc4occc4c3o2)c1`: “Non-toxic” and > 100 µM.
Turning to `COc1ccc2c(=O)c(OC)c(-c3ccc(OC)c(OC)c3)oc2c1` [FISETIN TETRAMETHYL ETHER], the Activity entry in data set [1] is “Non-toxic”. For the same compound, the half-inhibitory concentration (IC50) in the data set with BV-2 worked out at 28.5 µM.
`COc1ccc2c(=O)c(OC)c(-c3cc(OC)c4c(c3)OCO4)oc2c1`: the Activity result in data set [1] is “Non-toxic”. Besides, in the data set with BV-2, the half-inhibitory concentration (IC50) was > 100 µM.
For the compound `COc1cc(O)cc(-c2oc3c(ccc4occc43)c(=O)c2OC)c1`, the Activity result in data set [1] is “Non-toxic”. In addition, the IC50 in the data set on BV-2 is > 100 µM.
On to `COc1c2ccoc2cc2oc(-c3ccc4c(c3)OCO4)cc(=O)c12`, for which the Activity result in data set [1] is recorded as “Non-toxic”. In addition, the half-inhibitory concentration (IC50) with BV-2 is > 100 µM.
The matching figures for `CC1(C)C=Cc2c(ccc3c2O[C@H](c2ccc4c(c2)OCO4)CC3=O)O1`: “Non-toxic” and 78.8 µM.
In the same order, the values of `COc1cc2occc2c2oc(-c3ccccc3)cc(=O)c12` are “Non-toxic” and 5.98 µM.

Source of the values: ChEMBL document CHEMBL3580603, “Natural therapeutic agents for neurodegenerative diseases from a traditional herbal medicine Pongamia pinnata (L.) Pierre” (Bioorg Med Chem Lett, 2014).
